Data: ChEMBL document CHEMBL4651402, “Screening of ~5500 FDA-approved drugs and clinical candidates for anti-SARS-CoV-2 activity” (2021)

Tested on: SARS-CoV-2
Test: microbe, parasite or virus in culture
Settings: Severe acute respiratory syndrome coronavirus 2, Vero C1008, 48 h

Row | Structure (SMILES) | IC50 [µM] | IC50 (read-out: pIC50 (converted)) [µM]
1 | CC[C@@H](O)C(C[C@@H](C)N(C)C)(c1ccccc1)c1ccccc1 [ALPHAMETHADOL] | > 20 | > 20
2 | c1coc(CNc2ncnc3[nH]cnc23)c1 [KINETIN] | > 20 | > 20
3 | Cc1cnc(C(=O)O)c[n+]1[O-] [ACIPIMOX] | > 20 | > 20
4 | C[C@H](CN1CCOCC1)C(C(=O)N1CCCC1)(c1ccccc1)c1ccccc1 | > 20 | > 20
5 | O=C(O)[C@H]1CCCC[C@]1(O)c1ccccc1 | > 20 | > 20
6 | C=C1CCC2C(CC2(C)C)C(=O)CCC1O (stereo unspecified) [ISOKOBUSONE] | > 20 | > 20
7 | O=C(O)Cc1csc(-c2ccc(Cl)cc2)n1 [FENCLOZIC ACID] | > 20 | > 20
8 | O=c1[nH]cnc2c([C@@H]3N[C@H](CO)[C@@H](O)[C@H]3O)c[nH]c12 [FORODESINE] | > 20 | > 20
9 | COc1ccc(C2CNC(=O)C2)cc1OCCCN1CCC(C(=O)c2ccc(F)cc2)CC1 (stereo unspecified) [LIDANSERIN] | > 20 | > 20
10 | CCO[C@@H]1OC(=O)C[C@@H]1NC(=O)[C@@H]1CCCN1C(=O)[C@@H](NC(=O)c1ccc(N)c(Cl)c1)C(C)(C)C [BELNACASAN] | > 20 | > 20
11 | CN1CCO[C@@H](c2ccccc2)c2ccccc2C1 | > 20 | > 20
12 | CO[C@H]1[C@H](O)[C@@H](O)[C@H](O)[C@H](O)[C@H]1O [QUEBRACHITOL] | > 20 | > 20
13 | C1CCC2(C1)C1CN(CC3CC3)CC2CN(CC2CC2)C1 | > 20 | > 20
14 | Cc1cccc(C)c1NC(=O)C(C)N (stereo unspecified) [TOCAINIDE] | > 20 | > 20
15 | CCOC(=O)OC(C)OC1=C(C(=O)Nc2ccccn2)N(C)S(=O)(=O)c2ccccc21 (stereo unspecified) [AMPIROXICAM] | > 20 | > 20
16 | CCC[C@@H]1C[C@@H](C(=O)NC(C2O[C@H](SC)[C@H](OP(=O)(O)O)[C@@H](O)[C@H]2O)[C@H](C)Cl)N(C)C1 (stereo partly specified) | > 20 | > 20
17 | O=C(O)CCCCCc1cccc2cncn12 | > 20 | > 20
18 | CC(C)OC(=O)[C@H](C)N[P@](=O)(CO[C@H](C)Cn1cnc2c(N)ncnc21)Oc1ccccc1 [TENOFOVIR ALAFENAMIDE] | > 20 | > 20
19 | CN1CCC[C@H]1c1cccnc1 [NICOTINE] | > 20 | > 20
20 | COc1ccc(Cl)cc1C(=O)NCCc1ccc(S(=O)(=O)NC(=O)NC2CCCCC2)cc1 [GLYBURIDE] | > 20 | > 20
21 | Cc1c(-c2cccnc2)n(CCCCCCCC(=O)O)c2ccccc12 | > 20 | > 20
22 | CC(CCC(=O)O)C1CCC2C3C(=O)CC4CC(=O)CCC4(C)C3CC(=O)C12C (stereo unspecified) | > 20 | > 20
23 | C=C[C@]12CN(C)[C@@H]3[C@H]4CO[C@H](C[C@H]41)[C@]1(C(=O)Nc4ccccc41)[C@@H]32 [GELSEMINE] | > 20 | > 20
24 | C#CCN/C(=N\C#N)NCCSCc1nc[nH]c1C [ETINTIDINE] | > 20 | > 20
25 | Cc1ccc2c(-c3ccccc3)nc(=O)n(C(C)C)c2c1 [PROQUAZONE] | > 20 | > 20

Row | Structure (SMILES) | IC50 [µM] | IC50 (read-out: pIC50 (converted)) [µM]
26 | CCN(CC)C(C)CN1c2ccccc2Sc2ccccc21 (stereo unspecified) [ETHOPROPAZINE] | > 20 | > 20
27 | C[C@@H](c1ncncc1F)[C@](O)(Cn1cncn1)c1ccc(F)cc1F [VORICONAZOLE] | > 20 | > 20
28 | O=C1NC(=O)C(c2ccccc2)(c2ccccc2)N1 [PHENYTOIN] | > 20 | > 20
29 | CN[C@@H]1[C@@H](O)[C@@H](O[C@@H]2[C@@H](O)[C@H](O[C@H]3O[C@H]([C@@H](C)NC)CC[C@H]3N)[C@@H](N)C[C@H]2N)OC[C@]1(C)O [GENTAMICIN C1] | > 20 | > 20
30 | CC(C)(C)NCC(O)COc1ccc(NC(=O)NC2CCCCC2)cc1 (stereo unspecified) [TALINOLOL] | > 20 | > 20
31 | NS(=O)(=O)c1cc2c(cc1Cl)NCNS2(=O)=O [HYDROCHLOROTHIAZIDE] | > 20 | > 20
32 | CC/C=C\C/C=C\C/C=C\C/C=C\C/C=C\C/C=C\CCC(=O)O [DOCONEXENT] | > 20 | > 20
33 | C=C[C@H]1CN2CC[C@H]1C[C@H]2[C@H](O)c1ccnc2ccccc12 [CINCHONIDINE] | > 20 | > 20
34 | COC(=O)C(N)CS (stereo unspecified) [MECYSTEINE] | > 20 | > 20
35 | O=c1c(O)c(-c2ccccc2)oc2cc(O)ccc12 [3,7-DIHYDROXYFLAVONE] | > 20 | > 20
36 | Cc1oncc1C(=O)Nc1ccc(C(F)(F)F)cc1 [LEFLUNOMIDE] | > 20 | > 20
37 | CCCCN1C[C@H](O)[C@@H](O)[C@H](O)[C@H]1CO | > 20 | > 20
38 | Cn1nnc2c(C(N)=O)ncn2c1=O [TEMOZOLOMIDE] | > 20 | > 20
39 | CC[C@@H](CO)NCCN[C@@H](CC)CO [ETHAMBUTOL] | > 20 | > 20
40 | COc1ccc2[nH]cc(CCNC(C)=O)c2c1 [MELATONIN] | > 20 | > 20
41 | O=C(O)P(=O)(O)O [FOSCARNET] | > 20 | > 20
42 | O=C(/C=C/c1cccc(S(=O)(=O)Nc2ccccc2)c1)NO [BELINOSTAT] | > 20 | > 20
43 | C[C@H]1[C@H](NC(=O)/C(=N\OC(C)(C)C(=O)O)c2csc(N)n2)C(=O)N1S(=O)(=O)O [AZTREONAM] | > 20 | > 20
44 | CC1=Nc2ccc(Cl)cc2S(=O)(=O)N1 [DIAZOXIDE] | > 20 | > 20
45 | Cc1nc(COc2ccc(C[C@H](NC(=O)O[C@H]3CO[C@H]4OCC[C@H]43)[C@H](O)CN(CC(C)C)S(=O)(=O)c3ccc4c(c3)OCO4)cc2)cs1 [BRECANAVIR] | > 20 | > 20
46 | N=C(N)NC(=O)Cc1c(Cl)cccc1Cl [GUANFACINE] | > 20 | > 20
47 | CC(C)(C)OC(=O)c1ncn2c1[C@@H]1CCCN1C(=O)c1c(Br)cccc1-2 [BRETAZENIL] | > 20 | > 20
48 | CN1CCCCC1c1ccc(-c2cccnc2)nc1 (stereo unspecified) | > 20 | > 20
49 | COc1ccc(Cl)cc1[C@]1(F)C(=O)Nc2cc(C(F)(F)F)ccc21 [FLINDOKALNER] | > 20 | > 20
50 | COC(=O)C1=C(C)NC(C)=C(C(=O)OCCCN2CCC(c3ccccc3)(c3ccccc3)CC2)[C@@H]1c1cccc([N+](=O)[O-])c1 [DEXNIGULDIPINE] | > 20 | > 20

Row | Structure (SMILES) | IC50 [µM] | IC50 (read-out: pIC50 (converted)) [µM]
51 | O=C(O)[C@@H]1C[C@@H](C2CCCCC2)CN1C(=O)CP(=O)(O)CCCCc1ccccc1 [FOSINOPRILAT] | > 20 | > 20
52 | C[C@H]1C[C@H]2[C@@H]3CCC4=CC(=O)C=C[C@]4(C)[C@@]3(F)[C@@H](O)C[C@]2(C)[C@@]1(O)C(=O)CCl [CLOBETASOL] | > 20 | > 20
53 | C[N+](C)(C)CCCCC[N+](C)(C)C [PENTAMETHONIUM] | > 20 | > 20
54 | COc1cc(C(=O)OC2CC3CCC(C2)N3C)ccc1O (stereo unspecified) [FILLALBIN] | > 20 | > 20
55 | CC12CCC3C(CC=C4CC(OS(=O)(=O)O)CCC43C)C1CCC2=O (stereo unspecified) | > 20 | > 20
56 | O/N=C1/CCCC/C1=N\O | > 20 | > 20
57 | CC1(C)OC2CC3C4CC(F)C5=CC(=O)C=CC5(C)C4(Cl)C(Cl)CC3(C)C2(C(=O)CCl)O1 (stereo unspecified) | > 20 | > 20
58 | CCCC[C@](C)(CO)Nc1nc(N)nc2cc(F)cnc12 [SELGANTOLIMOD] | > 20 | > 20
59 | CC(C)(C)C(=O)C(Oc1ccc(Cl)cc1)n1cncn1 (stereo unspecified) [TRIADIMEFON] | > 20 | > 20
60 | COCc1c(-c2cc3cc(C)cc(OC)c3s2)c2c(N)ncnn2c1CN1CCNC(=O)C1 [ROGARATINIB] | > 20 | > 20
61 | CN(C)Cc1nccn1-c1ccc(NC(=O)c2cc(C(F)(F)F)nn2-c2ccc3onc(N)c3c2)c(F)c1 [RAZAXABAN] | > 20 | > 20
62 | C=CC(=O)N[C@@H]1CN(c2nc(Nc3cn(C)nc3OC)c3ncn(C)c3n2)C[C@H]1F [MAVELERTINIB] | > 20 | > 20
63 | Clc1ccccc1CN1CCc2sccc2C1 [TICLOPIDINE] | > 20 | > 20
64 | N=c1ccn2c(n1)O[C@H]1[C@H](O)[C@@H](CO)O[C@H]12 [ANCITABINE] | > 20 | > 20
65 | CCN(CC)CCNc1ccc(CO)c2sc3ccccc3c(=O)c12 [HYCANTHONE] | > 20 | > 20
66 | Cc1cc(C)c(CNC(=O)c2cc(Cl)c3c(c2C)OC(C)([C@H]2CC[C@H](N(C)C)CC2)O3)c(=O)[nH]1 (stereo partly specified) | > 20 | > 20
67 | Cc1cc(=O)oc2cc(O)c(O)cc12 [4-METHYLESCULETIN] | > 20 | > 20
68 | COCC(O)Cn1ccnc1[N+](=O)[O-] (stereo unspecified) [MISONIDAZOLE] | > 20 | > 20
69 | CN1CCCN=C1/C=C/c1cccs1 | > 20 | > 20
70 | C[C@H](C(=O)O)c1ccc2cc(OCc3ccc4ccccc4n3)ccc2c1 | > 20 | > 20
71 | CC1(C)O[C@@H]2C[C@H]3[C@@H]4C[C@H](F)C5=CC(=O)C=C[C@]5(C)[C@H]4[C@@H](O)C[C@]3(C)[C@]2(C(=O)CO)O1 [FLUNISOLIDE] | > 20 | > 20
72 | CCC(C)CCCCC(=O)N[C@@H](CCNCS(=O)(=O)O)C(=O)N[C@H](C(=O)N[C@@H](CCNCS(=O)(=O)O)C(=O)N[C@H]1CCNC(=O)[C@H]([C@@H](C)O)NC(=O)[C@@H](CCNCS(=O)(=O)O)NC(=O)[C@@H](CCNCS(=O)(=O)O)NC(=O)[C@H](CC(C)C)NC(=O)[C@@H](CC(C)C)NC(=O)[C@H](CCNCS(=O)(=O)O)NC1=O)[C@@H](C)O (stereo partly specified) | > 20 | > 20
73 | O=C(NCC1CCCCN1)c1cc(OCC(F)(F)F)ccc1OCC(F)(F)F (stereo unspecified) [FLECAINIDE] | > 20 | > 20
